Measured values taken from patent publication US20250129027A1 (APOGEE PHARMACEUTICALS, INC., priority 2023, published 2025).
Converted amounts (≈) assume the structure as drawn. Like-named read-outs stand apart in the source and are kept apart here.

Key:
human recombinant FAAH = human recombinant FAAH (Homo sapiens (Human), UniProt O00519); experiment: In vitro inhibition of FAAH activity (fluorescent inhibitor screening kit, AMC arachidonoyl amide); type: biochemical
In short: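 Fluorogenic kit assay: AMC arachidonoyl amide is cleaved by human recombinant FAAH, read at 340-360/450-465 nm. Percent inhibition versus non-treated control; IC50 values derived from multiple compound concentrations where tested.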

[1] = Pharmacokinetic study in rats, IV and oral gavage, with brain penetration; type: in vivo, rat; conditions: for Cmax exposure relative to URB597: 10 mg/kg PO vs URB597 at 250 mg/kg; for clearance: read-out: CLp; for Vd: read-out: Vdss; for improvement in oral exposure maximums compared to URB597: dose-adjusted (25× lower dose, 10× Cmax); for Kp at 0.5 h: read-out: Brain/Plasma ratio (0.5 h); for Kp at 1 h: read-out: Brain/Plasma ratio (1 h)
Procedure: In pharmacokinetic (PK) studies, animals were administered compounds of the present disclosure and PK parameters were measured. Rats (male, Sprague Dawley) were administered compound of Example 158 at a dose of 1.0 mg/kg intravenously (IV) or 10 mg/kg via oral gavage (PO). Blood samples were taken at t=0.083, 0.25. 0.5, 1, 2, 4, 6, 8 and 24 h post-dose and the plasma was analyzed for concentration of test article (compound of Example 158). Using standard analytical methodology (HPLC analysis), the following parameters were obtained:
Rats were administered compound of Example 172 at a dose of 1.0 mg/kg intravenously (IV) or 10 mg/kg via oral gavage (PO). Using standard analytical methodology (HPLC analysis), the following parameters were obtained: […]

human recombinant MAGL = human recombinant MAGL (Homo sapiens (Human), UniProt Q99685); experiment: In vitro inhibition of MAGL activity (inhibitor screening kit, 4-nitrophenylacetate); type: biochemical; conditions: human recombinant MAGL
human recombinant MAGL, sequence (Q99685 whole entry): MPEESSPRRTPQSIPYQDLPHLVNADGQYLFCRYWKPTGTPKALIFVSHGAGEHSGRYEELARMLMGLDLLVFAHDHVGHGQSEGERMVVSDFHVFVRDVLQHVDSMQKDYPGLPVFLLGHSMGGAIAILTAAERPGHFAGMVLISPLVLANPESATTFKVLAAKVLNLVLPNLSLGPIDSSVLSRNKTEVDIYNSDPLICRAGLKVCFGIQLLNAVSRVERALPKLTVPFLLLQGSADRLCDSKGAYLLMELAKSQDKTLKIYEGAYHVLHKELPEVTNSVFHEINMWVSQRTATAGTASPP
In short: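 Colorimetric kit assay: recombinant human MAGL hydrolyses 4-nitrophenylacetate to 4-nitrophenol, read by absorbance at 405-412 nm. Inhibition given as percentage of signal in treated versus untreated MAGL control.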

[2] = Aqueous solubility in PBS buffer pH 7.4 (LC-MS); type: physicochemical; conditions: phosphate buffer, kinetic from dmso stock, PBS buffer pH 7.4, room temperature, spiked at 100 μM from DMSO stock
Procedure: Compounds as described herewith were analyzed for their aqueous solubility.
The aqueous solubility of compounds were determined using standard protocols. To illustrate the experimental protocol, the analysis of a representative compound is described. Exemplary compound of Example 158 (MW: 380.4 g/mol) was analyzed in a buffer system at specified pH (phosphate buffer, pH 7.4). This was accomplished by spiking a DMSO stock solution of the test compound at a final concentration of 100 μM in buffer.
Solubility calculation: This is a quantitative assay. The mixture at the end of the assay is filtered by 0.22 micron syringe filter and after 5× dilution in diluent, it was analyzed versus a calibration curve using LC-MS.

[3] = Plasma stability (LC-MS/MS, % parent compound remaining, half-life); type: in vitro ADME; conditions: human plasma; for half-life at 1 μM: 37° C., 0-240 mins, read-out: Human Plasma Stability (t1/2, min); for plasma stability and/or aqueous solubility compared to reference compound URB597: see Table 5
Procedure: Exemplary compounds described herewith were assayed for plasma stability (various species).
Plasma was removed from deep freezer and allowed to thaw at room temperature (or at 37° C. if needed). Plasma was then centrifuged at 4,000 rpm at RT for 10 min and supernatant was collected and used for the assay: • Drug test tubes: 297 μL plasma/drug test tube, duplicate/drug. • Blank test tubes: 297 μL plasma/Blank test tube, duplicate, too. (Optional, if assay system is stable and consistent) • T0 plasma tube: […] X No. of total sample tubes+50 μL extra for T0 extraction. • (Note: equivalent proportion of solvent mixture as added in drug test tubes will be added before T0 extraction!)
Take out the pre-warmed plasma tubes from the 37° C. incubator. Add 3 μL of 100 μM stock solution (or, equivalent proportion of the solvent mixture to T0 plasma tube for T0 extraction) to each corresponding sample tubes in order, vortex gently (3×) to mix. Finish the sample tubes orderly and quickly, then transfer them to the Thermomixer (program & 37° C. ready), and start the Thermomixer. Record starting time on paper & start the timer for 15 min for the 1st sampling time point.
Now add the equivalent amount of solvent mixture to the T0 plasma tube, mix, and transfer 50 μL plasma to each of the T0 extracting tubes, vortex 20s and placed on ice. Vortex 10s again before centrifuging the samples at 14,000 rpm for 5 min at 4° C.
Repeat the above procedures at each time point (15, 30, 60, 120, 240 min) by transferring 50 μL plasma samples from the testing tubes to the corresponding extracting tubes, in the same order and time scheme as in the addition of the drug to the plasma samples at the beginning of the study.
• Kel=Slope of LN % PCR vs time
Half life (t½)=0.693/Kel (1)

[4] = oral dosing, dose of 250 mg/kg; cited from earlier work
[5] = FAAH, values as listed in Table 5, read-out: IC50
[6] = human recombinant FAAH, read-out: Inhibition on FAAH activity (IC50)
[7] = Sprague Dawley, plasma, rat (SD, male), IV 1.0 mg/kg, read-out: AUC0-Y (ng h/mL), IV
[8] = Sprague Dawley, plasma, rat (SD, male), IV 1.0 mg/kg
[9] = Sprague Dawley, plasma, rat (SD, male), IV 1.0 mg/kg, read-out: t1/2 (h), IV (converted)
[10] = male, Sprague Dawley, brain, rat
[11] = male, Sprague Dawley, plasma, rat, PO 10.0 mg/kg
[12] = male, Sprague Dawley, plasma, rat, PO 10.0 mg/kg, read-out: AUC0-Y (ng h/mL), PO
[13] = male, Sprague Dawley, plasma, rat, PO 10.0 mg/kg, read-out: Cmax
[14] = male, Sprague Dawley, plasma, rat, PO 10.0 mg/kg, read-out: Cmax (ng/mL)
[15] = male, Sprague Dawley, plasma, rat, PO 10.0 mg/kg, read-out: t1/2 (h), PO (converted)
[16] = rat, PO 10.0 mg/kg vs IV 1.0 mg/kg
[17] = male, Sprague Dawley, brain, intravenous, 1 mg/kg, rat

human recombinant FAAH, sequence (O00519 whole entry): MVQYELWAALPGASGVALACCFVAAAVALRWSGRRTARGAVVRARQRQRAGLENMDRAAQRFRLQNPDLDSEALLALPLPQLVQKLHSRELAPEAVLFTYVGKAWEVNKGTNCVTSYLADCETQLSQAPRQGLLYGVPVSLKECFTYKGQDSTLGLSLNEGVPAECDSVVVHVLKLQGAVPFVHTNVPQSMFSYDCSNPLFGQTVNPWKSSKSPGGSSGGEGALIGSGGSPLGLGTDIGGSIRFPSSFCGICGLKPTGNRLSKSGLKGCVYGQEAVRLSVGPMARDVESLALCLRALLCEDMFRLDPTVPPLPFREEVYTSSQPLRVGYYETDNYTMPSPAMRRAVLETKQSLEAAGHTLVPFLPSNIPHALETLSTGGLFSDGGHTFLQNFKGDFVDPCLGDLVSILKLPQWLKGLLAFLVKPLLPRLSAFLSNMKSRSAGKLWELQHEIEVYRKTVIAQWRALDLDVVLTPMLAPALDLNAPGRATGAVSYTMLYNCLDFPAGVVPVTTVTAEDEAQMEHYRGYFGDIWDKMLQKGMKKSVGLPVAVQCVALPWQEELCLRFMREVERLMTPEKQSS

| SMILES | IC50 (human recombinant FAAH; [5]) [nM] | IC50 (human recombinant FAAH; [6]) [nM] | Cmax exposure relative to URB597 [1] [×] | AUC [1, 7] [ng·h/mL] | clearance [1, 8] [mL/min/kg] | Vd [1, 8] [L/kg] | half-life [1, 9] [h] | improvement in oral exposure maximums compared to URB597 [1] [×] | Kp at 0.5 h [1, 10] | Kp at 1 h [1, 10] | Tmax [1, 11] [min] | AUC [1, 12] [ng·h/mL] | Cmax [1, 13] [µM] | Cmax [1, 14] [ng/mL] | half-life [1, 15] [h] | Co ([1]; rat (SD, male), IV 1.0 mg/kg) [ng/mL] | Co [uM] ([1]; rat (SD, male), IV 1.0 mg/kg) | IC50 (human recombinant MAGL) [µM] | solubility [2] [µM] | half-life at 1 μM [3] [min] | further results |
| --- | --- | --- | --- | --- | --- | --- | --- | --- | --- | --- | --- | --- | --- | --- | --- | --- | --- | --- | --- | --- | --- |
| O=C(NC1CCCCC1)Oc1ccc(O)c(-c2cncc(-c3nnco3)c2)c1 [Example 158, 3-(5-(1,3,4-oxadiazol-2-yl)pyridin-3-yl)-4-hydroxyphenyl cyclohexylcarbamate] | 127 | 124 | ~10 | 1340 | 12 | 0.62 | 0.31 | ~250 | 0.01 | 0.02 | 30 | 7050 | 5.05 | 1920 | 2.85 | 4829 | [12.7 uM] | > 50 | 92.5 (≈ 35.2 µg/mL) | 350 | bioavailability ([1]; male, Sprague Dawley, rat, plasma, oral, 10 mg/kg, rat, PO 10.0 mg/kg vs IV 1.0 mg/kg, read-out: F (%) oral bioavailability): 53%; AUC0-Y (ng h/mL), PO ([1]; rat, PO 10.0 mg/kg): 7054 ng·h/mL; t1/2 (h), PO ([1]; rat, PO 10.0 mg/kg): 2.85 h; F (%) oral bioavailability [1, 16]: > 50%; plasma stability and/or aqueous solubility compared to reference compound URB597 [3]: improved plasma stability, improved aqueous solubility, or improved plasma stability and aqueous solubility |
| COc1ccc(OC(=O)NC2CCCCCC2)cc1-c1cncc(-c2nnco2)c1 [Example 172, 3-(5-(1,3,4-oxadiazol-2-yl)pyridin-3-yl)-4-methoxyphenyl cycloheptylcarbamate] | 112 | 112 | ~10 | 424 | 40 | 1.58 | 0.8 | ~250 | 0.15 | 0.19 | 30 | 5260 | 5.91 | 2250 | 1.25 | 1528 | [4.02 uM] | > 10 | 16.2 (≈ 6.62 µg/mL) | 361 | Kp at 0.5 h [1, 17]: 0.15; Kp at 1 h [1, 17]: 0.19; Kp ([1]; male, Sprague Dawley, brain, rat, time not stated, read-out: Brain/Plasma ratio): > 0.15; AUC0-Y (ng h/mL), PO ([1]; rat, PO 10.0 mg/kg): 5257 ng·h/mL; F (%) oral bioavailability [1, 16]: >100%; plasma stability and/or aqueous solubility compared to reference compound URB597 [3]: improved plasma stability, improved aqueous solubility, or improved plasma stability and aqueous solubility |
| NC(=O)c1cccc(-c2cccc(OC(=O)NC3CCCCC3)c2)c1 [URB597, reference compound] |  |  |  |  |  |  |  |  |  |  |  |  |  |  |  |  |  | > 50 | 2.8 (≈ 0.948 µg/mL) | 47 | Cmax [4]: ~200 ng/mL |
